Reference: ChEMBL document CHEMBL4715811, “Antagonists of Orexin Receptors as Potential Treatment of Sleep Disorders, Obesity, Eating Disorders, and Other Neurological and Psychiatric Disorders” (ACS Med Chem Lett, 2016)

Columns and labels:
[1] = molecular target: T1, Orexin receptor type 2 (Homo sapiens, UniProt O43614); assay: Antagonist activity at human OX2R expressed in CHO cells assessed as inhibition of orexin A-induced intracellular Ca2+ release by FLIPR assay; assay type: functional, cell-based
T1 sequence (O43614 whole entry): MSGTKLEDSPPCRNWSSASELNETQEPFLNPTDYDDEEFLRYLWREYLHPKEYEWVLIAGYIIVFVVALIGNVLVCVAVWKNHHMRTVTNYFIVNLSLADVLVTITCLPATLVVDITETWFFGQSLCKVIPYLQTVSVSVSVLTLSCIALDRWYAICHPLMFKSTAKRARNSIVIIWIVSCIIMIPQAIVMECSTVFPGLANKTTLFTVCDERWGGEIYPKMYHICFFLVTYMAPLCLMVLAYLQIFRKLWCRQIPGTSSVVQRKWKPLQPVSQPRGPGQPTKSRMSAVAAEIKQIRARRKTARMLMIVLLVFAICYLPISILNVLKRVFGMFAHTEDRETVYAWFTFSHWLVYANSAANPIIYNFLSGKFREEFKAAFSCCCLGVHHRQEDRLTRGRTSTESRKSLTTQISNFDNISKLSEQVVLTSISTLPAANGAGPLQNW

[2] = molecular target: T2, Orexin/Hypocretin receptor type 1 (Homo sapiens, UniProt O43613); assay: Antagonist activity at human OX1R expressed in CHO cells assessed as inhibition of orexin A-induced intracellular Ca2+ release by FLIPR assay; assay type: functional, cell-based
T2 sequence (O43613 whole entry): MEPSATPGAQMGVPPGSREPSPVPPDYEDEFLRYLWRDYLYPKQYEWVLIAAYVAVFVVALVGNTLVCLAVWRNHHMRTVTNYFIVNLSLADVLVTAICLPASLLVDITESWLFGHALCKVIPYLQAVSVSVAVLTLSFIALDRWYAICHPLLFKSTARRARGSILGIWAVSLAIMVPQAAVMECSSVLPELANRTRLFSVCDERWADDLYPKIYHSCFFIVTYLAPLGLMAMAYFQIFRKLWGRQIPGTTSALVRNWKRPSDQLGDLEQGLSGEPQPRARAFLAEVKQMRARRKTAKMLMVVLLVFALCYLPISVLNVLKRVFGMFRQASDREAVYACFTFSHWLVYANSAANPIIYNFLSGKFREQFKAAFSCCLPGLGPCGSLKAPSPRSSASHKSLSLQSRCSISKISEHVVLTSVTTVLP

| Compound | IC50 [1] | IC50 [2] |
| --- | --- | --- |
| CC[C@](C)(O)c1nc([C@@H]2CC[C@@H](C)N(C(=O)c3cscc3-n3nccn3)C2)oc1C | 18 nM | 9770 nM |
| C[C@@H]1CC[C@@H](c2nc(CN(C)C)c(-c3ccccc3)o2)CN1C(=O)c1ccccc1-n1nccn1 | 983 nM | – |
| CCOc1ccccc1C(=O)N1C[C@H](c2nc(C(C)(C)O)c(C)o2)CC[C@H]1C | 12 nM | – |
